Results published in patent US7074575B2, “Use of interleukin-19 to treat ovarian cancer” (ZymoGenetics, Inc., priority 2002, dated 2006).

System: Ovcar3 (ATCC #HTB-161) cells
Test: Ovcar3 cytotoxicity assay (MTT readout)
Assay type: cell-based
Conditions: 72 hours
Protocol: We tested IL-19 in an Ovcar3 (ATCC #HTB-161) cytoxicity assay to measure the ability of IL-19 to prevent cells from growing during normal growth conditions. We used MTT reagent (Promega, Madison, USA) as our detection and readout for this cell inhibition assay. Procedure of a cytoxicity assay: Ovcar3 Cytotoxicity Assay
Ovcar3 (ATCC #HTB-161) cells were plated at a density of 5000 cells/100 ul/well in clear 96 well TC plates. Cells were plated in complete growth media consisting of RPMI containing 20% FBS, 0.01 mg/ml insulin, 2% HEPES, 1% Sodium Pyruvate and 1% Glutamax. Cells were incubated overnight at 37° C. in a 5% CO2 incubator.
The following day, media was removed from the cells and replaced with 100 ul/well of appropriately diluted samples. All sample dilutions were done in complete growth media. Samples were incubated on the cells for 72 hours.
After incubation, an MTT assay was done on the cells using the manufacturer's protocol (Promega #PAG4100). Dye solution was incubated on the cells 4 hours, followed by a 1 hour incubation with the stop solution. Absorbance was then read on the Victor II and percent inhibition was calculated from the wells containing complete growth media only.

Molecule	inhibition of growth (3 uM)	inhibition of growth (10 uM)	inhibition of growth (31 uM)	inhibition of growth (100 uM)	inhibition of growth (1 ng/ml)	inhibition of growth (10 ng/ml)	inhibition of growth (100 ng/ml)	inhibition of growth (1000 ng/ml)
CC1=C(/C=C/C(C)=C/C=C/C(C)=C/C(=O)O)C(C)(C)CCC1 [Retnoic Acid]	29%	34%	43%	83%	–	–	–	–
IL-19: interleukin-19 polypeptide, amino acid sequence SEQ ID NO:2; mature secreted form amino acid 23 (His) to 177 (Ala) (protein, listed as Homo sapiens) MKLQCVSLWLLGTILILCSVDNHGLRRCLISTDMHHIEESFQEIKRAIQAKDTFPNVTILSTLETLQIIKPLDVCCVTKNLLAFYVDRVFKDHQEPNPKILRKISSIANSFLYMQKTLRQCQEQRQCHCRQEATNATRVIHDNYDQLEVHAAAIKSLGELDVFLAWINKNHEVMSSA	–	–	–	–	4%	9%	23%	52%
